Values of other authors, collected in patent US20210316038A1, “ANTIBIOTIC ELUTING POLY(ESTER UREA) FILMS, MESHES AND POUCHES FOR INFECTION CONTROL OF IMPLANTABLE MEDICAL DEVICES” (The University of Akron, priority 2019, published 2021).

Cc1nnc(SCC2=C(C(=O)O)N3C(=O)[C@@H](NC(=O)Cn4cnnn4)[C@H]3SC2)s1 [Cefazolin]
solubility in water: Cefazolin has high solubility in water (>100 mg/ml
